Experimental data: PubChem BioAssay (NCI)
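Values below derive from 48-hour exposures of cells grown in 96-well plates, with endpoints linearly interpolated between the two concentrations bracketing the appropriate inhibition level. TGI: concentration producing complete growth inhibition.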

Experiments:
Test in all cases: inhibition of tumour cell growth, NCI panel, 48 h
UACC-62 melanoma = test system: UACC-62 melanoma
SNB-75 CNS = test system: SNB-75 CNS
EKVX NSCLC = test system: EKVX NSCLC
KM12 colon = test system: KM12 colon
CAKI-1 renal = test system: CAKI-1 renal
CCRF-CEM leukemia = test system: CCRF-CEM leukemia
MALME-3M melanoma = test system: MALME-3M melanoma
HOP-62 NSCLC = test system: HOP-62 NSCLC
COLO 205 colon = test system: COLO 205 colon
DU-145 prostate = test system: DU-145 prostate
SF-295 CNS = test system: SF-295 CNS
SK-MEL-5 melanoma = test system: SK-MEL-5 melanoma
SW-620 colon = test system: SW-620 colon
MDA-MB-435 = test system: MDA-MB-435
T-47D breast = test system: T-47D breast
SK-MEL-2 melanoma = test system: SK-MEL-2 melanoma
RPMI-8226 leukemia = test system: RPMI-8226 leukemia
OVCAR-8 ovarian = test system: OVCAR-8 ovarian
NCI-H460 lung = test system: NCI-H460 lung
SK-OV-3 ovarian = test system: SK-OV-3 ovarian
786-0 renal = test system: 786-0 renal
NCI/ADR-RES ovarian = test system: NCI/ADR-RES ovarian
HOP-92 NSCLC = test system: HOP-92 NSCLC
TK-10 renal = test system: TK-10 renal
OVCAR-3 ovarian = test system: OVCAR-3 ovarian
NCI-H226 lung = test system: NCI-H226 lung
HCC-2998 colon = test system: HCC-2998 colon
MDA-MB-231 breast = test system: MDA-MB-231 breast
M14 melanoma = test system: M14 melanoma
PC-3 prostate = test system: PC-3 prostate
SNB-19 CNS = test system: SNB-19 CNS
HCT-15 colon = test system: HCT-15 colon
HS 578T breast = test system: HS 578T breast
A498 renal = test system: A498 renal
NCI-H23 lung = test system: NCI-H23 lung
NCI-H522 lung = test system: NCI-H522 lung
HCT-116 colon = test system: HCT-116 colon
BT-549 breast = test system: BT-549 breast
MDA-N = test system: MDA-N
SK-MEL-28 melanoma = test system: SK-MEL-28 melanoma
OVCAR-5 ovarian = test system: OVCAR-5 ovarian
A549 NSCLC = test system: A549 NSCLC
SR leukemia = test system: SR leukemia
K-562 leukemia = test system: K-562 leukemia
MCF7 breast = test system: MCF7 breast
SF-268 CNS = test system: SF-268 CNS
ACHN renal = test system: ACHN renal
IGROV1 ovarian = test system: IGROV1 ovarian
U251 CNS = test system: U251 CNS
UO-31 renal = test system: UO-31 renal
SN12C renal = test system: SN12C renal
MOLT-4 leukemia = test system: MOLT-4 leukemia
UACC-257 melanoma = test system: UACC-257 melanoma
HL-60(TB) leukemia = test system: HL-60(TB) leukemia
OVCAR-4 ovarian = test system: OVCAR-4 ovarian
LOX IMVI melanoma = test system: LOX IMVI melanoma

Measured: TGI

C=C(C)[C@H]1C2=CC(C)=C(O2)[C@@H](O[C@@H]2c3oc(cc3C)[C@H](C(=C)C)[C@H]3C=C(CC[C@H]2C(=C)C)C(=O)O3)[C@H](C(=C)C)CCC2=C[C@H]1OC2=O
> 100 µM: all assays above
